{
  "source": "patent US7531622B2",
  "about": "“Synthesis and characterization of novel systems for guidance and vectorization of molecules of therapeutic interest towards target cells” (Centre National de la Recherche Scientifique- CNRS, priority 2002, dated 2009)",
  "tested_on": "HEK293 cells that overexpress integrin β3",
  "assay": "Internalization of fluorescein-labeled peptides, confocal microscopy with early endosome immunolabeling",
  "format": "cell-based",
  "settings": "37° C., 15 to 30 minutes",
  "method": "3) Active internalization of drugs or vectorized products: The same cells, placed in contact at 37° C. or 4° C. for 15 to 30 minutes with peptides previously labeled with fluorescein, are observed by confocal microscopy after immunolabeling of the early endosome vesicles (anti-Early Endosome 1A labeling, visualized in red).\nIf incubation of the peptides is performed at 4° C., only the extracellular label is observed with the peptide obtained according to the invention, confirming that internalization takes place by way of an active process.",
  "note": "Non-standard residues stand in square brackets, D forms with d.",
  "data": [
    {"substance": "cyclo(RGDfK) (cyclo(RGD[dF]K)) [cRGD]", "values": [
      {"measurement": "visualization / detection of the peptide on and in cells by fluorescence", "value": "not detectable by immunofluorescence"},
      {"measurement": "internalization by endocytosis (co-localization with EE1A label)", "setting": "fluorescein-labeled peptide", "value": "not triggered"}
    ]}
  ]
}
